Source: patent US20110294732A1, “ERYTHROPOLETIN COMPLEMENTATION OR REPLACEMENT” (Universite De Strasbourg, priority 2007, published 2011)
Several values for one entry are separate records, joined by “and”; a condition that tells them apart may be missing. Equal values may be shown once. Entries after “also recorded” stand apart in the source; their conditions may differ.

Assays:
whole blood [1] = experiment: In vitro P50 of whole blood after incubation with effector, human; assay type: cell-based; settings: 60 mM
Experimental: (§1) For the in vitro experiments, ITPP was dissolved in deionized water, pH was adjusted to pH 7 and, for incubation with whole blood, the osmolarity of the ITPP solutions was adjusted with glucose to 270-297 mOsM. Mixtures of hemoglobin and ITPP were measured with a HEMOX analyzer (PD Marketing, London) immediately after mixing. Red blood cells were incubated with ITPP for 1 hour at 37° C. Following incubation, the cells were washed 3 times with Bis-Tris-buffer (pH=7.0) and then used for P50 measurement.
(§2) ITPP was tested along with a cholesteroyl derivative (here designated as kf96) (both at 60 mM) as effectors for P50 shifts in whole blood of three species: human, mouse and pig. As usual, pHs for the compound-solutions were adjusted to ca. 7.0, osmolarities for both solutions were determined (325-373 mOsM) prior to treatment with the effectors, and whole blood volumes at 1:1 ratios were incubated.

whole blood [2] = experiment: In vitro P50 of whole blood after incubation with effector, mouse; assay type: cell-based
Experimental: as §1, §2

[3] = Tolerability of oral treatment in mice; assay type: in vivo, C57BL/6 mice; settings: drinking over 4 days
Experimental: (§3) Twelve C57BL/6 mice drank ITPP over 4 days (about 25 ml/24 hrs). Seven Control mice drank either pure water (three mice), or a solution of IHP (inositol hexaphosphate without the internal pyrophosphate rings) at the same concentration and pH as ITPP (4 mice). […] Blood was collected from the tail vein of the 12 C57BL/6 mice on day 0 (before treatment started), 1, 2, 4, 6, 7, 8, 10, 11 and 12, in order to measure P50 values. […] Oral application of ITPP caused significant right shifts of P50 (up to 31%) in mice.

[4] = Blood counts of mice after oral ingestion; assay type: in vivo; settings: single mouse, oral in water for 4 days; day 0 count 8.9-11.8
circulating RBC = experiment: P50 shift of circulating RBC after oral administration in drinking water; assay type: in vivo, C57BL/6 mice
Experimental: In experiments conducted in vivo in which ITPP was administered orally, ITPP was dissolved in drinking (not deionized) water at a 20 g/L-concentration (=27 mM, pH 7.0) and offered for drinking ad libitum. A significant shift of the P50 value of circulating RBCs was observed.
as §3
The 12 mice were observed over 12 days, the P50 values of their circulating RBC were measured almost daily. […] It appears that all mice ingesting the aqueous solution of ITPP present a shift of the P50 value of their circulating RBC, albeit with individual differences. FIG. 8 illustrates the individual differences in the P50 shift induced in the mice by ingestion of the aqueous solution of ITPP.

Effort capacity test = assay type: in vivo, normal wild-type mice; settings: normal animals, maximum
Text: The effort capacity of normal animals may be enhanced by up to 100% by ITPP administration, since more oxygen can be delivered to the working muscle.

[5] = Tolerability and toxicity of intravenous injection in piglets; assay type: in vivo
Experimental: An in vivo experiment was performed on one 8 week-old normal piglet (body weight: 17 kg). The piglet was anesthesized with 5% Isoflurane, 0.7 L/min N2O and 2.0 L/min O2 for 20-30 minutes, when ITPP was injected, or blood was taken from the ear vein, respectively. The compound injected intravenous at a concentration of 27 g ITPP/100 ml water (volume injected: 63 ml, pH 6.5, containing 17 g ITPP=1 g/l kg body weight) was not harmful to the animal, when injected into the piglet's ear vein over at least 10 minutes.
Intravenous injection of 1 g ITPP/kg body weight caused a significant right shift of the P50-value (up to 20%) in porcine RBCs. An almost saturated ITPP solution, pH 6.7, was injected intravenously into two piglets (both of ca. 18 kg body weight) (27 g ITPP/100 ml=1.5 g/kg body weight) over 20 minutes.
Blood was taken from the heart of the dead animals for determination of blood counts as well as the amount of sodium, potassium and calcium in the sera. All numbers of blood cells (hematocrit, white blood cells etc.) were halved. The amount of potassium and calcium was normal, while sodium was doubled (before injection: 120-140 mmol/L; after injection: 245 mmol/L). Apparently, the large amount of sodium in that form of ITPP (6 Na^+/molecule) caused the death of the animals. It appears that up to 1 g ITPP per kg body weight can be injected intravenously, (if injected slowly) without harmful effects for the animals. […] A second piglet was also injected with ITPP at the 1 g/kg concentration, after 2 piglets had died after iv injection of 1.2 g ITPP (or even more) per kg body weight. […] Starting with day 3 after injection of the allosteric effector, the number of reticulocytes increased by about 3% for a period of 14 days.

RBCs = experiment: Lysis of RBCs after in vitro incubation with effector; assay type: cell-based, human, mouse and pig
[6] = Hematocrit after IP injection; assay type: in vivo; settings: 6 days after IP injection of 200 μl of a 60 mM solution; 40% on day 0
Experimental: It appears, based upon the preliminary data reported, that an inverse relationship exists between the number of RBCs and shift of their P50 value (see FIG. 1). The basal value of the RBC count is restored, once ΔP50 becomes 0%, 12 days after ingestion of ITPP. The hematocrit drops from 40% on day 0 (before ITPP administration) to 32%, 6 days after IP injection of 200 μl of a 60 mM ITPP solution.

murine hemoglobin = murine hemoglobin (Mus musculus, UniProt P02088); experiment: In vitro P50 shift of hemoglobin mixed with ITPP (HEMOX analyzer); assay type: biochemical
murine hemoglobin, sequence (P02088 2-147 limits assumed): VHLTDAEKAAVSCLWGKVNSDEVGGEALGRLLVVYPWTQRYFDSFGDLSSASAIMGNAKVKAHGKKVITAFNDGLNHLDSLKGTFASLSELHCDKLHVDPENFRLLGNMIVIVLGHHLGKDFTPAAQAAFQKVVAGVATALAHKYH
murine hemoglobin, sequence (P01942 2-142 partner limits assumed): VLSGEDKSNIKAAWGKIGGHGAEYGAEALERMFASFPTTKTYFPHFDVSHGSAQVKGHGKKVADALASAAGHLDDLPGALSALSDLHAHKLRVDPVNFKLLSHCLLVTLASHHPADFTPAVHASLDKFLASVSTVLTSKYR
Experimental: Myo-ITPP was tested for its ability to induce a decrease of the O2-affinity of hemoglobin measured as a shift of the P50 value (P50 at 50% saturation of hemoglobin). The observed shifts to higher PO2 were up to 250% in murine hemoglobin and up to 40% in murine whole blood. This finding was particularly striking because the shifts occurred concomitantly in vivo with a decrease in the number of RBCs and hematocrit; such hemodilution is recognized as a positive indicator in many circumstances because it is diagnostic for downregulation of RBC production where the body's oxygen needs are being met efficiently. Additional support came from enhancement of the effort capacity of test animals by up to 100% following ITPP administration, which confirmed that oxygen was being delivered efficiently to the working muscle, and only to that muscle.
as §1

Question: For `O=P1(O)OC2C3OP(=O)(O)OP(=O)(O)OC3C3OP(=O)(O)OP(=O)(O)OC3C2OP(=O)(O)O1` (stereo not shown) [ITPP, inositol-tripyrophosphate], which “P50 increase, % (ITPP)” value (whole blood [1]) is on record?
Answer: Its value is 39%.

Question: And the “P50 mm Hg effector ITPP” value (whole blood [1]; control 22.1)?
Answer: Its value is 30.8 mm Hg.

Question: And the “P50 increase, % (ITPP)” value (whole blood [2]; mouse whole blood, 60 mM)?
Answer: The value was 29%.

Question: What about the “P50 mm Hg effector ITPP” value (whole blood [2]; mouse whole blood, 60 mM, control 36.7) of the same molecule?
Answer: The value was 47.4 mm Hg.

Question: And the “shift of the P50 value to higher PO2” value (whole blood [2]; murine whole blood)?
Answer: The value was “up to 40%”.

Question: And the “tolerability of oral treatment” value [3]?
Answer: Its value is “No C57BL/6 mouse seemed to suffer”.

Question: What about the “RBC × 10^6/mm^3” value [4] of the same molecule?
Answer: The value was 9.35 10^6/mm^3 and 8.60 10^6/mm^3 and 8.95 10^6/mm^3 (2×) and 8.88 10^6/mm^3 and 8.70 10^6/mm^3 and 8.73 10^6/mm^3 and 7.65 10^6/mm^3 and 7.80 10^6/mm^3.

Question: And the “time for P50 values to return to control values” (circulating RBC; ingestion stopped on day 4)?
Answer: Its value is no more than 12 days.

Question: And the “time lag before the maximum P50 shift is attained” value (circulating RBC; oral, 27 mM)?
Answer: Its value is “about 48 hrs”.

Question: What about the “right shift of P50” value (circulating RBC; oral, 20 g/L (27 mM) in drinking water over 4 days) of the same molecule?
Answer: The value was “up to 31%”.

Question: What about the “P50 day 7, %” value (circulating RBC; single mouse, oral in water for 4 days, day 7) of the same molecule?
Answer: The value was 13% and 14% and 20% (2×) and 16% (2×) and 15% and 7% and 9%.

Question: And the “P50 day 10, %” value (circulating RBC; single mouse, oral in water for 4 days, day 10)?
Answer: Its value is 10% (3×) and 6% and 12% and 16% and 8% and 11% and 9%.

Question: What about the “enhancement of the effort capacity” value (Effort capacity test) of the same molecule?
Answer: The value was “up to 100%”.

Question: And the “harmfulness of intravenous injection” value ([5]; 1 g/kg body weight, injected slowly over at least 10 minutes)?
Answer: The value was “not harmful”.

Question: And the “amount of potassium and calcium in the sera” value ([5]; after lethal iv injection)?
Answer: The value was “normal”.

Question: What about the “sodium in the sera after injection” value ([5]; after lethal iv injection, before injection 120-140) of the same molecule?
Answer: Its value is 245 mmol/L.

Question: What about the “numbers of blood cells (hematocrit, white blood cells etc.) in the dead animals” value ([5]; heart blood after lethal iv injection) of the same molecule?
Answer: Its value is “halved”.

Question: What about the “amount that can be injected intravenously without harmful effects” value ([5]; if injected slowly) of the same molecule?
Answer: Its value is “up to 1 g ITPP per kg body weight”.

Question: What about the mortality ([5]; iv, almost saturated solution 27 g/100 ml, intended 1.5 g/kg over 20 minutes, received <1.3 g/kg) of the same molecule?
Answer: Its mortality is “Both piglets died; also recorded: killed the animals”.

Question: What about the “lysis of RBCs” value (RBCs) of the same molecule?
Answer: The value was “never occurred; also recorded: no lysis of RBCs was observed”.

Question: And the hematocrit [6]?
Answer: The hematocrit was 32%.

Question: And the “shift of the P50 value to higher PO2” value (murine hemoglobin)?
Answer: Its value is “up to 250%”.
